Test results reported in PubChem BioAssay (NCI).
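Five concentrations, 48 hours, 96-well plates. GI50 is the concentration that inhibits growth by half. TGI denotes the concentration required for complete inhibition of growth.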

How the values were obtained:
Assay in all cases: NCI anticancer screen, dose series, 48 h
COLO 205 colon = system: COLO 205 colon
MDA-MB-435 = system: MDA-MB-435
HT29 colon = system: HT29 colon
HS 578T breast = system: HS 578T breast
RPMI-8226 leukemia = system: RPMI-8226 leukemia
A498 renal = system: A498 renal
MOLT-4 leukemia = system: MOLT-4 leukemia
NCI/ADR-RES ovarian = system: NCI/ADR-RES ovarian
HOP-92 NSCLC = system: HOP-92 NSCLC
LOX IMVI melanoma = system: LOX IMVI melanoma

SMILES | TGI (COLO 205 colon) [µM] | TGI (MDA-MB-435) [µM] | TGI (HT29 colon) [µM] | TGI (HS 578T breast) [µM] | TGI (RPMI-8226 leukemia) [µM] | TGI (A498 renal) [µM] | TGI (MOLT-4 leukemia) [µM] | TGI (NCI/ADR-RES ovarian) [µM] | TGI (HOP-92 NSCLC) [µM] | TGI (LOX IMVI melanoma) [µM] | GI50 (COLO 205 colon) [µM] | GI50 (MDA-MB-435) [µM] | GI50 (HT29 colon) [µM] | GI50 (HS 578T breast) [µM] | GI50 (RPMI-8226 leukemia) [µM] | GI50 (A498 renal) [µM] | GI50 (MOLT-4 leukemia) [µM] | GI50 (NCI/ADR-RES ovarian) [µM]
C=CCOC(=O)N1c2ccc(O)cc2[C@@]23O[C@@]24[C@@H]1C#C/C=C\C#C[C@]3(O)C(OC)(OC)C[C@@H]4C | 33.1 | 53.7 | 49.8 | 90.9 | 91.5 | 67.6 | > 100 | > 100 | 77.9 |  |  |  |  |  |  |  |  | 
COC(=O)c1ccccc1/C=C1\Cc2ccc3c(c2C1=O)CCCC3 | > 100 | > 100 | > 100 | > 100 | > 100 | > 100 | > 100 | > 100 |  | > 100 |  |  |  |  |  |  |  | 
C=CCN1/C(=C2\SC(=S)N(c3ccc(C)cc3)C2=O)Sc2c1ncn(C)c2=O | > 100 |  | > 100 |  | > 100 | > 100 | > 100 |  | > 100 | > 100 |  |  |  |  |  |  |  | 
CCN(CC)CC1CN=C(N)O1 (centres undefined) | > 100 | > 100 |  |  | > 100 | > 100 | > 100 | > 100 | > 100 | > 100 |  |  |  |  |  |  |  | 
Cc1cc(S(=O)(=O)Nc2nncn2-c2ccc(Cl)cc2)c(S)cc1Cl | > 10 | > 10 | > 10 | > 10 | > 10 | > 10 | > 10 | > 10 |  | > 10 |  |  |  |  |  |  |  | 
O=C(CN1CCCCC1)Nc1ccc2c(c1)C1Oc3ccccc3CC1CO2 (centres undefined) | 26.2 | 38.4 | 29.1 |  | > 100 | 62.8 | > 100 | 88.3 | 54.7 | 30 |  |  |  |  |  |  |  | 
Cc1ccc(S(=O)(=O)N/N=C2\CC3CC4CCC2C4C3)cc1 (centres undefined) | > 100 | > 100 | > 100 | > 100 | > 100 | > 100 | > 100 |  | > 100 | > 100 |  |  |  |  |  |  |  | 
O=C(N/N=C\c1cccc2ccccc12)Nc1cccc2ccccc12 | > 100 | 24.3 | > 100 | > 100 |  | 51.3 |  | > 100 |  | > 100 |  |  |  |  |  |  |  | 
O=C(c1cccs1)N1CCCN(C(=O)c2cccs2)C1=S | > 100 | > 100 | > 100 | > 100 | > 100 | > 100 | > 100 | > 100 |  | > 100 |  |  |  |  |  |  |  | 
COC(=O)CNC(=O)CCC(C)[C@H]1CCC2C3C(C[C@H](OC(C)=O)[C@@]21C)[C@@]1(C)CCC2(C[C@H]1C[C@H]3OC(C)=O)OOC1(CC[C@]3(C)C4C[C@H](OC(C)=O)[C@@]5(C)C(CC[C@@H]5C(C)CCC(=O)NCC(=O)OC)C4[C@H](OC(C)=O)C[C@@H]3C1)OO2 (some centres undefined) |  | > 50 | 2.37 | 2.37 |  | 39.8 |  | > 50 | 2.64 |  |  |  |  |  |  |  |  | 
CC1SC2(CCCCC2)N(NC(=O)CSc2nc3ccc(Cl)cc3c(=O)n2-c2ccccc2)C1=O (centres undefined) | 29.2 | 54.7 | 33 |  |  | 81.2 | 47.2 | 50.2 | 52.5 | 37.4 |  |  |  |  |  |  |  | 
COC(=O)[C@]1(c2ccc(N(C)C)cc2OC)C[C@@H]2CCCN(CCc3c1[nH]c1ccccc31)C2 | 27.3 |  | 32.8 |  | 63.2 | 47 | > 91.4 | 35.8 | 33.4 | > 62.3 |  |  |  |  |  |  |  | 
C=CC(C)C1(CCCOCc2ccccc2)C(=S)N2CCC3(CC24CCCC14)OCCO3 (centres undefined) | > 100 |  | > 100 |  | 10.4 | > 100 | > 100 |  |  | > 100 |  |  |  |  |  |  |  | 
O=c1[nH]nc(Nc2ccccc2)c2nnn(C3CCCCC3)c12 | > 100 | > 100 | > 100 |  | > 100 |  | > 100 | > 100 | > 100 | > 100 |  |  |  |  |  |  |  | 
Cc1c(Cl)cccc1N=NC(=O)NNc1cccc(Cl)c1C |  | 34.5 | 35.3 |  | > 100 | 27.7 | 46.7 |  |  | 35.7 |  |  |  |  |  |  |  | 
CCCCCCCCCCCCCC[n+]1ccc(C(N)=O)cc1 | 2.69 | 4.64 | 4.13 | 7.05 | 3.03 | 21.5 | > 100 | 50.2 |  |  | 1.27 | 1.87 | 1.11 | 2.01 | 0.731 | 3.07 | 2.54 | 19
O=C(O)/C(=C\c1ccc(O)cc1)c1cccc2ccccc12 |  | > 100 | > 100 | > 100 |  | > 100 | > 100 | > 100 | > 100 | > 100 |  |  |  |  |  |  |  | 
Cn1c2ccccc2c2cc(N3CCCC3)c3c(c21)C(=O)N(c1ccccc1)C3=O | > 100 | > 100 | > 100 | > 100 | > 100 | > 100 | > 100 | > 100 |  | > 100 |  |  |  |  |  |  |  | 

SMILES | TGI (COLO 205 colon) [µM] | TGI (MDA-MB-435) [µM] | TGI (HT29 colon) [µM] | TGI (HS 578T breast) [µM] | TGI (RPMI-8226 leukemia) [µM] | TGI (A498 renal) [µM] | TGI (MOLT-4 leukemia) [µM] | TGI (NCI/ADR-RES ovarian) [µM] | TGI (HOP-92 NSCLC) [µM] | TGI (LOX IMVI melanoma) [µM] | GI50 (COLO 205 colon) [µM] | GI50 (MDA-MB-435) [µM] | GI50 (HT29 colon) [µM] | GI50 (HS 578T breast) [µM] | GI50 (RPMI-8226 leukemia) [µM] | GI50 (A498 renal) [µM] | GI50 (MOLT-4 leukemia) [µM] | GI50 (NCI/ADR-RES ovarian) [µM]
Cc1cc2c(c(S(=O)(=O)c3ccccc3[N+](=O)[O-])c1)NCCC2 | > 100 | > 100 | > 100 | > 100 | > 100 | > 100 |  | > 100 |  | > 100 |  |  |  |  |  |  |  | 
CNC(=O)SCC(NC(=O)CCC(N)C(=O)O)C(=O)NCC(=O)O (centres undefined) | > 100 |  | > 100 |  | > 100 | > 100 | > 100 | > 100 | > 100 | > 100 |  |  |  |  |  |  |  | 
Cc1cc2n[n+]3[n-]cc(-c4ccccc4)n3c2cc1[N+](=O)[O-] | > 100 | > 100 |  | > 100 | > 100 | > 100 | > 100 |  | > 100 | > 100 |  |  |  |  |  |  |  | 
Cc1ccc(S(=O)(=O)C2=c3nc4ccccc4cc3=C3C(=O)c4ccccc4C(=O)C32)cc1 (centres undefined) | > 100 |  |  |  | > 100 | > 100 | > 100 |  | > 100 | > 100 |  |  |  |  |  |  |  | 
COc1cc(C2C3=C(CCCC3=O)N(c3ccc(C)cc3)C3=C2C(=O)CCC3)c([N+](=O)[O-])cc1OC |  |  | > 100 | > 100 | > 100 | > 100 | > 100 | > 100 | > 100 | > 100 |  |  |  |  |  |  |  | 
Cc1cc2c(cc1C)C(=O)C1(C2)Cc2cc3c(cc2C1=O)CCC3 (centres undefined) | > 100 | > 100 | > 100 | > 100 | > 100 | > 100 | > 100 | > 100 | > 100 |  |  |  |  |  |  |  |  | 
Nn1c(=O)[nH]c2ncn(Cc3ccccc3)c2c1=O | > 100 | > 100 | > 100 | > 100 |  | > 100 | > 100 | > 100 | > 100 |  |  |  |  |  |  |  |  | 
C/C=C(\C)C(=O)O[C@@H]1CC(C)(C)CC2C3=CCC4[C@]56CC[C@](O)(OC5)C(C)(C)C6CC[C@@]4(C)C3(C)CC[C@]21C(=O)O (some centres undefined) | > 100 | > 100 | > 100 | > 100 | > 100 | > 100 | > 100 | > 100 |  | > 100 |  |  |  |  |  |  |  | 
O=C1CC(=O)NC(=NN2C(=O)CSC2C(=O)c2ccco2)N1 (centres undefined) | > 100 | > 100 | > 100 | > 100 | > 100 | > 100 | > 100 | > 100 | > 100 |  |  |  |  |  |  |  |  | 
NCCCNOCCCN | > 100 | > 100 | > 100 |  | > 100 | > 100 | > 100 | > 100 | > 100 |  |  |  |  |  |  |  |  | 
COC(=O)C1=C(C(=O)OC)C(N(C)C)C(C(=O)OC)=C(C(=O)OC)S1 | > 100 | > 100 |  | > 100 | > 100 | > 100 | > 100 | > 100 |  | > 100 |  |  |  |  |  |  |  | 
CCCCCCCCCCCCCCCCCCNC(=S)/N=C/c1c(O)c2ccccc2[nH]c1=O | 32.9 | 42.3 | 30.9 |  |  | 36.9 | 29.7 | 35.1 | 32.7 | 32.2 |  |  |  |  |  |  |  | 
O=C(Nc1ccccc1Cl)c1ccc([N+](=O)[O-])cc1 | > 100 |  | > 100 |  | > 100 | > 100 | > 100 |  |  | > 100 |  |  |  |  |  |  |  | 
CO/N=C(\C([O-])=N\[n+]1cnn(CC(=O)OC(C)(C)C)c1)c1csc(NC(c2ccccc2)(c2ccccc2)c2ccccc2)n1 | > 10 |  | > 10 | > 10 | > 10 | > 10 | > 10 | > 10 | > 10 | > 10 |  |  |  |  |  |  |  | 
CC(C)C(=O)/C=C/S/C=C/C(=O)C(C)C | 8.16 | 30.1 | > 100 | 95.7 |  |  |  | 9.63 |  | 11.1 |  |  |  |  |  |  |  | 
OC12c3ccccc3C1CCCCCCCCCC21OCCO1 (centres undefined) | > 100 |  | > 100 |  | > 100 | > 100 | > 100 |  |  | > 100 |  |  |  |  |  |  |  | 
COC(=O)C(Cc1c[nH]c2ccccc12)NP(=O)(O)OCC1OC(n2cc(Br)c(=O)[nH]c2=O)CC1O (centres undefined) | > 100 | > 100 | > 100 | > 100 |  | > 100 | > 100 | > 100 | > 100 | > 100 |  |  |  |  |  |  |  | 
